Tests used:
[1] = tested on: dentate gyrus granule cells (DGGCs); experiment: Acute NAS exposure: phasic currents (sIPSCs) in DGGCs of hippocampal slices; format: cell-based, mouse; details: for mean sIPSC amplitude before versus during exposure / mean sIPSC decay time in the presence of NAS: 100 nM acute; for sIPSC Amplitude / sIPSC Decay / sIPSC Frequency: during acute 100 nM exposure
Protocol: (§1) Brain slices were prepared from 3- to 5-week-old male C57 mice. Mice were anesthetized with isoflurane, decapitated, and brains were rapidly removed and submerged in ice-cold cutting solution containing (mM): 126 NaCl, 2.5 KCl, 0.5 CaCl2, 2 MgCl2, 26 NaHCO3, 1.25 NaH2PO4, 10 glucose, 1.5 sodium pyruvate, and 3 kynurenic acid. Coronal 310 μm thick slices were cut with the vibratome VT1000S (Leica Microsystems, St Louis, Mo., USA). The slices were then transferred into incubation chamber filled with prewarmed (31-32° C.) oxygenated artificial cerebro-spinal fluid (ACSF) of the following composition (in mM): 126 NaCl, 2.5 KCl, 2 CaCl2, 2 MgCl2, 26 NaHCO3, 1.25 NaH2PO4, 10 glucose, 1.5 sodium pyruvate, 1 glutamine, 3 kynurenic acid and 0.005 GABA bubbled with 95% O2-5% CO2. Slices were allowed to recover at 32° C. for at least 1 hr before recording. Exogenous GABA was added in an attempt to standardize ambient GABA in the slice and provide an agonist source for newly inserted extrasynaptic GABAARs.
(§2) After recovery, a single slice was transferred to a submerged, dual perfusion recording chamber (Warner Instruments, Hamden, Conn., USA) on the stage of an upright microscope (Nikon FN-1) with a 40× water immersion objective equipped with DIC/IR optics. Slices were maintained at 32° C. and gravity-superfused with ACSF solution throughout experimentation and perfused at rate of 2 ml/min with oxygenated (O2/CO2 95/5%) ACSF.
(§3) Whole-cell currents were recorded from the dentate gyrus granule cells (DGGCs) in 310-μm-thick coronal hippocampal slices. Patch pipettes (5-7MΩ) were pulled from borosilicate glass (World Precision Instruments) and filled with intracellular solution of the composition (in mM) as follows: 140 CsCl, 1 MgCl2, 0.1 EGTA, 10 HEPES, 2 Mg-ATP, 4 NaCl and 0.3 Na-GTP (pH=7.2 with CsOH). A 5 min period for stabilization after obtaining the whole-cell recording conformation (holding potential of −60 mV) was allowed before currents were recorded using an Axopatch 200B amplifier (Molecular Devices), low-pass filtered at 2 kHz, digitized at 20 kHz (Digidata 1440A; Molecular Devices), and stored for offline analysis.
For tonic current measurements, an all-points histogram was plotted for a 10 s period before and during 100 μM picrotoxin application, once the response reached a plateau level. Recordings with unstable baselines were discarded. Fitting the histogram with a Gaussian distribution gave the mean baseline current amplitude and the difference between the amplitudes before and during picrotoxin was considered to be the tonic current. The negative section of the all-points histogram which corresponds to the inward IPSCs was not fitted with a Gaussian distribution (Kretschmannova et al., 2013; Nusser and Mody, 2002). Series resistance and whole-cell capacitance were continually monitored and compensated throughout the course of the experiment. Recordings were eliminated from data analysis if series resistance increased by >20%. Spontaneous inhibitory post-synaptic currents (sIPSCs) were analyzed using the mini-analysis software (version 5.6.4; Synaptosoft, Decatur, Ga.). Minimum threshold detection was set to 3 times the value of baseline noise signal. To assess sIPSC kinetics, the recording trace was visually inspected and only events with a stable baseline, sharp rising phase, and single peak were used to negate artifacts due to event summation. Only recordings with a minimum of 200 events fitting these criteria were analyzed. sIPSCs amplitude, and frequency from each experimental condition was pooled and expressed as mean±SEM. To measure sIPSC decay, 100 consecutive events were averaged and the decay was fitted to a double exponential and the weighted decay constant (tw) was determined. Statistical analysis was performed by using Student t-test (paired and unpaired where appropriate), where p<0.05 is considered significant. […]

[2] = tested on: dentate gyrus granule cells (DGGCs); format: cell-based, mouse; details: for tonic current after exposure and washout: 30-60 min wash, vehicle control 43.9±5.7 pA; for concentration dependence of tonic current after exposure and washout: maximal effects at 1 μM; for tonic current versus vehicle treated slices with PKC inhibitor GFX: GFX 50 μM 15 min, then co-exposure 15 min, ≥30 min washout
Protocol: as §1, §2, §3
For tonic current measurements, an all-points histogram was plotted for a 10 s period before and during 100 μM picrotoxin application, once the response reached a plateau level. Recordings with unstable baselines were discarded. Fitting the histogram with a Gaussian distribution gave the mean baseline current amplitude and the difference between the amplitudes before and during picrotoxin was considered to be the tonic current. The negative section of the all-points histogram which corresponds to the inward IPSCs was not fitted with a Gaussian distribution (Kretschmannova et al., 2013; Nusser and Mody, 2002). Series resistance and whole-cell capacitance were continually monitored and compensated throughout the course of the experiment. Recordings were eliminated from data analysis if series resistance increased by >20%. Spontaneous inhibitory post-synaptic currents (sIPSCs) were analyzed using the mini-analysis software (version 5.6.4; Synaptosoft, Decatur, Ga.). Minimum threshold detection was set to 3 times the value of baseline noise signal. To assess sIPSC kinetics, the recording trace was visually inspected and only events with a stable baseline, sharp rising phase, and single peak were used to negate artifacts due to event summation. Only recordings with a minimum of 200 events fitting these criteria were analyzed. sIPSCs amplitude, and frequency from each experimental condition was pooled and expressed as mean±SEM. To measure sIPSC decay, 100 consecutive events were averaged and the decay was fitted to a double exponential and the weighted decay constant (tw) was determined. Statistical analysis was performed by using Student t-test (paired and unpaired where appropriate), where p<0.05 is considered significant.

CC(=O)[C@H]1CC[C@H]2[C@@H]3CC[C@H]4C[C@H](O)CC[C@]4(C)[C@H]3CC[C@]12C [ALLO, Allopregnanolone]
mean sIPSC amplitude before versus during exposure [1]: no significant difference | mean sIPSC decay time in the presence of NAS [1]: significantly increased | sIPSC Amplitude [1]: 39.1 pA | sIPSC Decay [1]: 19.2 ms | sIPSC Frequency [1]: 3.4 Hz | tonic current after 100 nM exposure and washout, WT slices [2]: significant increase | tonic current after exposure and washout ([2]; 1 μM, 15 min incubation): 95.8±10.8 pA | concentration dependence of tonic current after exposure and washout ([2]; 15 min incubation, wash): concentration-dependent increase | tonic current versus vehicle treated slices with PKC inhibitor GFX [2]: no significant difference

CC(=O)[C@H]1CC[C@H]2[C@@H]3CC[C@H]4C[C@](C)(O)CC[C@]4(C)[C@H]3CC[C@]12C [Ganaxolone]
mean sIPSC amplitude before versus during exposure [1]: no significant difference | mean sIPSC decay time in the presence of NAS [1]: significantly increased | sIPSC Amplitude [1]: 55.1 pA | sIPSC Decay [1]: 23.8 ms | sIPSC Frequency [1]: 5.6 Hz | tonic current after exposure and washout ([2]; 1 μM, 15 min incubation): 57.4±6.3 pA | magnitude of tonic current versus control ([2]; 1 μM, 15 min incubation, wash): did not significantly alter

C[C@@]1(O)CC[C@@]2(C)[C@H](CC[C@@H]3[C@@H]2CC[C@]2(C)[C@@H](C(=O)Cn4nccn4)CC[C@@H]32)C1 [SGE-516]
mean sIPSC amplitude before versus during exposure [1]: no significant difference | mean sIPSC decay time in the presence of NAS [1]: significantly increased | sIPSC Amplitude [1]: 52.9 pA | sIPSC Decay [1]: 15.1 ms | sIPSC Frequency [1]: 4.6 Hz | tonic current after 100 nM exposure and washout, WT slices [2]: significant increased | tonic current after exposure and washout ([2]; 1 μM, 15 min incubation): 123.0±22.2 pA | concentration dependence of tonic current after exposure and washout ([2]; 15 min incubation, wash): concentration-dependent increase | tonic current versus vehicle treated slices with PKC inhibitor GFX [2]: no significant difference

From patent publication US20230116196A1, “METHOD OF TREATING CNS DISORDERS WITH NEU[…] GABAERGIC COMPOUNDS” (priority 2017, published 2023)
